Several values for one entry are separate records, joined by “and”; a condition that tells them apart may be missing. Identical values can stand only once. Like-named read-outs stand apart in the source and are kept apart here. Peptide text beside a SMILES is read from it. * marks the point of attachment. X1 = CCCCCCCCCCCCCCCC(=O)OCC(C*)OC(=O)CCCCCCCCCCCCCCC; Palmitoyl = CCCCCCCCCCCCCCCC(=O)*
Legend:
RVFV MP-12 [1] = type: cell-based, Rift Valley fever virus; parameters: relative RVFV infection in neurons treated with TLR2 ligands, Rep 1 / relative RVFV infection in neurons treated with TLR2 ligands, Rep 2: unit not given here
RVFV-DiD = type: cell-based, Rift Valley fever virus; conditions: 1h
RVFV MP-12 [2] = type: cell-based, Rift Valley fever virus; conditions: 24h
RVFV MP-12 [3] = type: cell-based, Rift Valley fever virus; conditions: 10μg/mL for 4h; 15h
RVFV MP-12 [4] = system: RVFV MP-12
[5] = system: VSV-RVFV (recombinant VSV expressing RVFV glycoproteins Gn and Gc); type: cell-based, vesicular stomatitis virus / RVFV ZH501 glycoproteins
RVFV MP-12 [6] = type: cell-based, Rift Valley fever virus; conditions: for RVFV RNA after lipopeptide pretreatment: 10μg/mL for 4h
[7] = system: VSV-RVFV (recombinant VSV expressing RVFV glycoproteins Gn and Gc); type: cell-based, vesicular stomatitis virus / RVFV ZH501 glycoproteins; conditions: 14h
VSV-GFP [8] = type: cell-based, vesicular stomatitis virus
RVFV MP-12 [9] = type: cell-based, Rift Valley fever virus
RVFV ZH501 [10] = conditions: mouse, in vivo
RVFV MP-12 [11] = type: cell-based, Rift Valley fever virus; conditions: 10μg/mL
RVFV MP-12 [12] = type: cell-based, Rift Valley fever virus; remark: listed apart in the source
RVFV MP-12 [13] = type: cell-based, Rift Valley fever virus; remark: listed apart in the source
RVFV MP-12 [14] = type: cell-based, Rift Valley fever virus; remark: listed apart in the source
RVFV ZH501 [15] = system: RVFV ZH501; parameters: species or system mouse (C57BL/6); conditions: mouse, in vivo
RVFV ZH501 [16] = system: RVFV ZH501; parameters: species or system mouse (C57BL/6); conditions: mouse, in vivo; remark: listed apart in the source
RVFV MP-12 [17] = type: cell-based, Rift Valley fever virus; conditions: 10μg/mL; remark: listed apart in the source
RVFV ZH501 [18] = system: RVFV ZH501; parameters: species or system mouse (C57BL/6); conditions: mouse, in vivo; remark: listed apart in the source
VSV-GFP [19] = conditions: 2 h
RVFV ZH501 [20] = system: RVFV ZH501; parameters: species or system mouse (C57BL/6); conditions: mouse, in vivo; remark: listed apart in the source
[21] = system: Ifit2, Cxcl10, Tnfa, Cxcl1 RNA; type: cell-based, rat
La Crosse virus (LACV) = type: cell-based

2'3'-c-di-AMP
Rep 1 rel infection (RVFV MP-12 [1]): 1.031 and 1.083
Rep 2 rel infection (RVFV MP-12 [1]): 1.123 and 1.1792

CO/C1=C\C(C)=C\[C@@H](C)[C@@H](O)[C@@H](C)C/C(C)=C/C=C/[C@H](OC)[C@@H]([C@@H](C)[C@@H](O)[C@H](C)[C@@]2(O)C[C@@H](O)[C@H](C)[C@@H](C(C)C)O2)OC1=O [BafA, bafilomycin A1]
number, intensity, and area of DiD puncta (RVFV-DiD): decreased
RVFV infection after pulse at pH 7.6 (RVFV MP-12 [2]): blocked infection
RVFV infection in acid-washed cells (pH 5.2) (RVFV MP-12 [2]): did not block infection

CCNCc1nc2c(N)nc3ccccc3c2n1CC(C)(C)O [Gardiquimod]
neurotoxicity in screen (relative survival of neurons) (rat cortical neurons): neurotoxic

CC(C)Cn1cnc2c(N)nc3ccccc3c21 [Imiquimod]
neurotoxicity in screen (relative survival of neurons) (rat cortical neurons): neurotoxic

CCCCCCCCCCCCCCCC(=O)N[C@@H](CSCC(COC(=O)CCCCCCCCCCCCCCC)OC(=O)CCCCCCCCCCCCCCC)C(=O)N[C@@H](CO)C(=O)N[C@@H](CCCCN)C(=O)N[C@@H](CCCCN)C(=O)N[C@@H](CCCCN)C(=O)N[C@@H](CCCCN)C(=O)O (some centres unmarked) [Pam3CSK4] (Palmitoyl-C(X1)SKKKK-OH)
RVFV titers (RVFV MP-12 [3]): 3.7 x 10^4 PFU / mL and 3.2 x 10^4 PFU / mL
number, intensity, and area of DiD puncta (RVFV-DiD): decreased
Mouse cortical neurons Rel. infection (RVFV MP-12 [4]; 0.016 ug/mL): 0.9744 and 0.948 and 1.028
Mouse cortical neurons Rel. infection (RVFV MP-12 [4]; 0.08 ug/mL): 1.018 and 0.9269 and 0.9842
Mouse cortical neurons Rel. infection (RVFV MP-12 [4]; 0.4 ug/mL): 1.0033 and 0.9456 and 0.9907
Mouse cortical neurons Rel. infection (RVFV MP-12 [4]; 2 ug/mL): 1.058 and 0.9085 and 1.0272
Mouse cortical neurons Rel. infection (RVFV MP-12 [4]; 10 ug/mL): 0.3619 and 0.3566 and 0.3035
VSV-RVFV replication [5]: decreased VSV-RVFV replication
RVFV RNA after lipopeptide pretreatment (RVFV MP-12 [6]): decreased RVFV RNA
RVFV RNA levels in the presence of TPCA-1 or IKK 16 (RVFV MP-12 [6]; 10μg/mL, 24h): significantly decreased
VSV-RVFV replication [7]: decreased VSV-RVFV replication
VSV RNA replication (VSV-GFP [8]): unchanged
Neutralization (relative RVFV infection) (RVFV MP-12 [9]): 1.27 and 1.194 and 1.159 and 1.08
RVFV infection, neutralization condition (RVFV MP-12 [9]; 24 hours): failed to neutralize RVFV
survival of mice treated with Pam3CSK4 alone (RVFV ZH501 [10]): all mice treated with Pam3CSK4 alone survived
viral RNA bound to cells (RVFV MP-12 [11]): did not change
internalized RVFV RNA (RVFV MP-12 [12]): no difference
Rep 1 rel infection (RVFV MP-12 [13]): 1.242 and 0.7928
Rep 2 rel infection (RVFV MP-12 [13]): 1.2338 and 0.6802
internalized RVFV RNA (RVFV MP-12 [14]): no difference
decrease of viral replication in the brain (RVFV ZH501 [15]): more than 5 logs
RVFV nucleoprotein immunofluorescence in brain and liver (RVFV ZH501 [16]): decreased viral replication in the brain and liver
hemorrhages caused by RVFV in the liver (H & E) (RVFV ZH501 [16]): reduced hemorrhages
infection relative to vehicle in screen (RVFV MP-12 [1]): below 60 % of vehicle
relative RVFV infection in neurons treated with TLR2 ligands, Rep 1 (RVFV MP-12 [1]): 26.2716
relative RVFV infection in neurons treated with TLR2 ligands, Rep 2 (RVFV MP-12 [1]): 51.9474
viral RNA bound to cells (RVFV MP-12 [17]): did not change
RVFV infection in DMSO treated cells (RVFV MP-12 [2]; 10μg/mL): inhibited RVFV infection
RVFV infection in acid-washed, BafA-treated cells (RVFV MP-12 [2]; 10μg/mL, pH 5.2): decreased RVFV infection
Neurologic disease at 3dpi? No (number of mice) (RVFV ZH501 [18]): 2 and 3
Neurologic disease at 3dpi? Yes (number of mice) (RVFV ZH501 [18]): 0
mice with signs of severe (neurologic) disease (RVFV ZH501 [18]): zero out of three and 0/3
IC50 against VSV (VSV-GFP [19]): > 10 µg/mL
RVFV titers in the liver (RVFV ZH501 [20]): significantly decreased

NC(=O)Nc1sc(-c2ccc(F)cc2)cc1C(N)=O [TPCA-1, 2-[(aminocarbonyl)amino]-5-(4-fluorophenyl)-3-thiophenecarboxamide]
transcription of NF-κB target genes Tnfa and Cxcl1 after Pam3CSK4 stimulation [21]: blunted transcription

FSL-1
relative RVFV infection in neurons treated with TLR2 ligands, Rep 1 (RVFV MP-12 [1]): 105.077
relative RVFV infection in neurons treated with TLR2 ligands, Rep 2 (RVFV MP-12 [1]): 120.652

IKK 16
transcription of NF-κB target genes Tnfa and Cxcl1 after Pam3CSK4 stimulation [21]: blunted transcription

Pam2CSK4
Rel. VSV-RVFV RNA [5]: 0.4225 and 0.2236 and 0.215
VSV-RVFV replication [5]: also reduced VSV-RVFV infection, although it was significantly weaker than Pam3CSK4
Rel. Fold change RVFV RNA (RVFV MP-12 [6]): 0.741 and 1.189
RVFV RNA after lipopeptide pretreatment (RVFV MP-12 [6]): no antiviral effect
Rel. LACV RNA (La Crosse virus (LACV)): 0.9766 and 0.5238 and 0.6648 and 0.9475
antiviral effect on LACV (qPCR and microscopy) (La Crosse virus (LACV)): no antiviral effect
VSV RNA replication (VSV-GFP [8]): no antiviral effect
RVFV infection in neurons in screen (RVFV MP-12 [1]): did not decrease RVFV infection
Rep 1 rel infection (RVFV MP-12 [1]): 1.076 and 1.061
relative RVFV infection in neurons treated with TLR2 ligands, Rep 1 (RVFV MP-12 [1]): 106.055
relative RVFV infection in neurons treated with TLR2 ligands, Rep 2 (RVFV MP-12 [1]): 122.343
Rel. Fold change Cxcl1 RNA [21]: 1030.97 and 740.202
Rel. Fold change Tnfa RNA [21]: 157.572 and 100.256
inflammatory gene transcription (Tnfa, Cxcl1, Cxcl10) ([21]; 10μg/mL for 4h): induced inflammatory gene transcription

Source: paper PMC11236204 (PLOS Pathogens, 2024)
